Laboratory results as given in PubChem BioAssay AID449762 (Southern Research Specialized Biocontainment Screening …, 2010).
Inconclusive results are not listed. Where a SMILES comes first, the peptide text is derived from it. [ ]: non-standard residue; d: D form. The star is where a group is joined. ξ: configuration not given here. ξF = NC(Cc1ccccc1)C(=O)O; Cbz = O=C(OCc1ccccc1)*

System: M. tuberculosis H37Rv growth inhibition, 7H9 media
Assay: M. tuberculosis growth inhibition, HTS (AID 449762);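 note: bacterial growth assessed after seven days of incubation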
Settings: for IC90: measured here: IC90 growth inhibition

SMILES | IC50 [µM] | IC90 [µM]
O=C(C[C@@H]1C/C=C\C[C@H](NC(=O)OCC2c3ccccc3-c3ccccc32)C(=O)OC[C@H]2CCCN2C1=O)N[C@@H](CO)Cc1ccccc1 | 16.1 | 28.2
O=C(OCC(=O)N1CCC(c2ccccc2)=N1)c1ccc(Cl)s1 | 21.5 | > 25
c1ccc(CC2CCN(C3=Nc4cccc5cccc3c45)CC2)cc1 | 29.3 | 38.1
CC(=O)N(Cc1ccc(F)cc1)C1=C(NCCc2ccccc2)C(=O)c2ccccc2C1=O | 5.83 | 6.59
CCc1ccc2nc(N3C(=O)C(O)=C(C(=O)c4ccco4)C3c3cccs3)sc2c1 (stereo unspecified) | 83.2 | 92.3
CCCOC(=O)/C(=C\c1ccc([N+](=O)[O-])o1)NC(=O)c1ccccc1 | 11 | 16.2
C#CCn1c(=NC(=O)c2cc(Cl)sc2Cl)sc2cc(S(N)(=O)=O)ccc21 | 3.37 | > 100
Cc1cc(C)n(-c2cc(C(C)(C)C)nc3c(-c4ccccc4)cnn23)n1 | 27.3 | 34.7
COc1cc2nc(Nc3ccc(C)c(Cl)c3)nc(N)c2cc1OC | 33.2 | 98.8
COC(=O)CCc1sc(Nc2ccc(Br)cc2)nc1-c1ccc(OC)cc1 | 26 | 44.1
CCN1CCN(c2oc(COc3ccc(-c4ccccc4)cc3)nc2C#N)CC1 | 43.4 | 48.4
Oc1ccc(Nc2nc(-c3ccc4ccccc4c3)cs2)cc1 | 42.9 | > 100
Cc1onc(-c2c(F)cccc2Cl)c1C(=O)O/N=C(\N)c1ccc([N+](=O)[O-])o1 | 5.3 | 11
CN1CCN(Cn2cc(/C=C/C(=O)c3ccccc3)c3ccccc32)CC1 | 7.95 | 26.3
CSC(=S)N/N=C/c1ccccc1 | 10.1 | 12.8
O=C(CCl)Nc1cn(-c2ccccc2)nc1-c1ccccc1 | < 0.2 | 1.15
COc1ccc(-c2cn3cc([N+](=O)[O-])ccc3n2)cc1OC | 17.8 | > 100
S=c1nc[nH]c2nc[nH]c12 | 3.08 | 3.43
O=C(/C=C/c1ccc([N+](=O)[O-])cc1)NC1CC2CCC1C2 (stereo unspecified) | 44.6 | 84.1
O=C(NC(=S)Nc1ccc(N2CCCCC2)c(Cl)c1)c1cccs1 | 20.2 | 27.1
COc1ccc(C(=O)COC(=O)[C@H](C)Nc2ccc(C(F)(F)F)cc2[N+](=O)[O-])cc1 | 11.2 | > 25
Cc1[nH]n(-c2ccccc2)c(=O)c1C(C[N+](=O)[O-])c1ccccc1Cl (stereo unspecified) | 6.99 | 14.3

SMILES | IC50 [µM] | IC90 [µM]
CCN(CC(=O)NCc1cccs1)C(=O)c1ccc([N+](=O)[O-])o1 | 19 | 58.3
CSc1cccc(CNC(=O)C2CCC(=O)N(Cc3cccc(C(F)(F)F)c3)C2)c1 (stereo unspecified) | 26.6 | 30.6
CCOC(=O)CSc1ncnc2c1sc1nc(N3CCOCC3)c3c(c12)CCCC3 | 23.3 | 26.2
C/C(=N/NC(=O)c1ccccn1)c1c[nH]c2ccccc12 | 6.03 | 11.8
CCc1noc(C)c1C(=O)Nc1nc(-c2ccc(F)cc2)c(C)s1 | 8.8 | 36.9
CCOC(=O)CNC(=O)C(Cc1ccccc1)NC(=O)OCc1ccccc1 (stereo unspecified) (Cbz-[ξF]-Gly-OEt) | 2.22 | 3.36
O=C(CSc1nnc(-c2cccs2)o1)NCC1CN(Cc2ccccc2)CCO1 (stereo unspecified) | 5.22 | 15.2
COc1ccc(SN=C2C(C)=CC(=O)C=C2C)cc1 | 11.9 | 13.5
COc1cc(C(=O)N/N=C/c2cc([N+](=O)[O-])cs2)cc(OC)c1OC | < 0.2 | 25.9
CCC(=O)NC(=S)Nc1ccc(NC(=O)COc2ccc(Cl)cc2Cl)cc1 | 88.1 | > 100
CCOc1ccc(NCc2cccn2-c2nnc(N3CCC(C(=O)NCCCN4C(C)CCCC4C)CC3)s2)cc1 (stereo unspecified) | 71.9 | 90.9
O=C(/C=C/c1ccccc1)N1CCN(CCN2C(=O)c3cccc4cccc(c34)C2=O)CC1 | 1.95 | 3.87
C=C1C(=O)[C@@]23[C@H](O)C[C@@H]4C(C)(C)CC[C@H](O)[C@@]4(C)[C@@H]2CC[C@@H]1[C@H]3O | 3.04 | 4.05
CN(CC(=O)Nc1ccc(OC(F)(F)F)cc1)C(=O)/C=C/c1cc2c(cc1[N+](=O)[O-])OCO2 | 30.2 | 37.9
O=C(NC1CCN(C(=O)N2c3ccccc3Sc3ccccc32)CC1)c1ccccc1F | 86.1 | > 100
COc1cccc2sc(Nc3nnc(-c4cccs4)o3)nc12 | 23.9 | 27.1
O=C1C(Br)=Cc2cccc3cccc1c23 | < 0.2 | < 0.2
S=C1SCN(Cc2ccco2)CN1Cc1ccco1 | 32.7 | 52.3
CC(=O)Nc1sc2c(c1-c1nc3ccccc3s1)CCN(C(C)C)C2 | 5.88 | 6.66
CCOC(=O)c1ccc(NC(=O)CCc2nc(-c3ccc(Cl)cc3)no2)cc1 | 27.4 | > 100
CCCC(NCC(O)COc1ccc(-c2ccccc2)cc1)c1ccccc1 (stereo unspecified) | 11.5 | 14.9
